# Experimental data published in ChEMBL document CHEMBL1201862, “PubChem BioAssay data set” (2004).
#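 A five-concentration, 48-hour dose response in 96-well plates underlies each endpoint, interpolated linearly between surrounding concentrations. GI50 is the concentration that inhibits growth by half.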 Calls of active or inactive are those of the source. Rule as the data show it: active = GI50 up to about 1.1 µM and inactive = higher.
# Experiments:
# Assay in all cases: growth of human tumour cells (NCI), 48 h
# DMS-114 = test system: DMS-114
# HCC 2998 = test system: HCC 2998
# COLO 205 = test system: COLO 205
# DMS-273 = test system: DMS-273
# SK-MEL-5 = test system: SK-MEL-5
# SK-OV-3 = test system: SK-OV-3
# SF-295 = test system: SF-295
# IGROV-1 = test system: IGROV-1
# KM12 = test system: KM12
# CCRF-CEM = test system: CCRF-CEM
# SN12C = test system: SN12C
# ACHN = test system: ACHN
# SNB-78 = test system: SNB-78
# M14 = test system: M14
# HOP-92 = test system: HOP-92
# KM-20L2 = test system: KM-20L2
# SW-620 = test system: SW-620
# OVCAR-5 = test system: OVCAR-5
# NCI-H460 = test system: NCI-H460
# HCT-15 = test system: HCT-15
# MOLT-4 = test system: MOLT-4
# U-251 = test system: U-251
# RPMI-8226 = test system: RPMI-8226
# NCI-H23 = test system: NCI-H23
# HL-60 = test system: HL-60
# HOP-62 = test system: HOP-62
# K562 = test system: K562
# UACC-62 = test system: UACC-62
# HCT-116 = test system: HCT-116
# SK-MEL-2 = test system: SK-MEL-2
# OVCAR-3 = test system: OVCAR-3
# SK-MEL-28 = test system: SK-MEL-28
# SF-268 = test system: SF-268
# XF498 = test system: XF498
# CAKI-1 = test system: CAKI-1
# NCI-H522 = test system: NCI-H522
# UACC-257 = test system: UACC-257
# A498 = test system: A498
# SF-539 = test system: SF-539
# EKVX = test system: EKVX
# 786-0 = test system: 786-0
# TK-10 = test system: TK-10
# Malme-3M = test system: Malme-3M
# M19-MEL = test system: M19-MEL
# RXF 393 = test system: RXF 393
# OVCAR-4 = test system: OVCAR-4
# SNB-75 = test system: SNB-75
# SNB-19 = test system: SNB-19
# NCI-H226 = test system: NCI-H226
# HT-29 = test system: HT-29
# OVCAR-8 = test system: OVCAR-8
# LXFL 529 = test system: LXFL 529
# A549 = test system: A549
# BT-549 = test system: BT-549
# MDA-MB-231 = test system: MDA-MB-231
# SR = test system: SR
# DLD-1 = test system: DLD-1
# HOP-18 = test system: HOP-18
# Hs-578T = test system: Hs-578T
# PC-3 = test system: PC-3
# MDA-N = test system: MDA-N
# MCF7 = test system: MCF7
# NCI/ADR-RES = test system: NCI/ADR-RES
# LOX IMVI = test system: LOX IMVI
# MDA-MB-435 = test system: MDA-MB-435
# DU-145 = test system: DU-145
# T47D = test system: T47D
# UO-31 = test system: UO-31
structure (smiles),measurement,setting,value
CN=S(=O)(C[C@]1(O)CC2OC1C1OC(C)(C)OC21)c1ccccc1 (stereo not given in full),GI50,DMS-114,> 100 µM (inactive)
same,GI50,HCC 2998,> 100 µM (inactive)
same,GI50,COLO 205,> 100 µM (inactive)
same,GI50,DMS-273,> 100 µM (inactive)
same,GI50,SK-MEL-5,> 100 µM (inactive)
same,GI50,SK-OV-3,> 100 µM (inactive)
same,GI50,SF-295,> 100 µM (inactive)
same,GI50,IGROV-1,> 100 µM (inactive)
same,GI50,KM12,> 100 µM (inactive)
same,GI50,CCRF-CEM,> 100 µM (inactive)
same,GI50,SN12C,> 100 µM (inactive)
same,GI50,ACHN,> 100 µM (inactive)
same,GI50,SNB-78,> 100 µM (inactive)
same,GI50,M14,> 100 µM (inactive)
same,GI50,HOP-92,> 100 µM (inactive)
same,GI50,KM-20L2,> 100 µM (inactive)
same,GI50,SW-620,> 100 µM (inactive)
same,GI50,OVCAR-5,> 100 µM (inactive)
same,GI50,NCI-H460,> 100 µM (inactive)
same,GI50,HCT-15,> 100 µM
same,GI50,MOLT-4,> 100 µM (inactive)
same,GI50,U-251,> 100 µM (inactive)
same,GI50,RPMI-8226,> 100 µM (inactive)
same,GI50,NCI-H23,> 100 µM (inactive)
same,GI50,HL-60,> 100 µM (inactive)
same,GI50,HOP-62,> 100 µM (inactive)
same,GI50,K562,> 100 µM (inactive)
same,GI50,UACC-62,> 100 µM (inactive)
same,GI50,HCT-116,> 100 µM (inactive)
same,GI50,SK-MEL-2,> 100 µM (inactive)
same,GI50,OVCAR-3,> 100 µM (inactive)
same,GI50,SK-MEL-28,> 100 µM (inactive)
same,GI50,SF-268,> 100 µM (inactive)
same,GI50,XF498,> 100 µM (inactive)
same,GI50,CAKI-1,> 100 µM (inactive)
same,GI50,NCI-H522,> 100 µM (inactive)
same,GI50,UACC-257,> 100 µM (inactive)
same,GI50,A498,> 100 µM (inactive)
same,GI50,SF-539,> 100 µM (inactive)
same,GI50,EKVX,> 100 µM (inactive)
same,GI50,786-0,> 100 µM (inactive)
same,GI50,TK-10,> 100 µM (inactive)
same,GI50,Malme-3M,> 100 µM (inactive)
same,GI50,M19-MEL,> 100 µM (inactive)
same,GI50,RXF 393,> 100 µM (inactive)
same,GI50,OVCAR-4,> 100 µM (inactive)
same,GI50,SNB-75,83 µM (inactive)
same,GI50,SNB-19,> 100 µM (inactive)
same,GI50,NCI-H226,> 100 µM (inactive)
same,GI50,HT-29,> 100 µM (inactive)
same,GI50,OVCAR-8,> 100 µM (inactive)
same,GI50,LXFL 529,> 100 µM (inactive)
same,GI50,A549,> 100 µM (inactive)
Cc1c2cc[n+](C)cc2c(C)c2c1[nH]c1ccc(Cl)cc12,GI50,DMS-114,0.341 µM (active)
same,GI50,HCC 2998,1.63 µM (inactive)
same,GI50,COLO 205,0.494 µM (active)
same,GI50,DMS-273,1.76 µM (inactive)
same,GI50,SK-MEL-5,1.09 µM (active)
same,GI50,SK-OV-3,1.2 µM (inactive)
same,GI50,SF-295,0.374 µM (active)
same,GI50,IGROV-1,1.02 µM (active)
same,GI50,BT-549,1.26 µM (inactive)
same,GI50,KM12,0.897 µM (active)
same,GI50,CCRF-CEM,0.802 µM (active)
same,GI50,SN12C,0.214 µM (active)
same,GI50,MDA-MB-231,4.41 µM (inactive)
same,GI50,SR,5.32 µM (inactive)
same,GI50,DLD-1,1.05 µM (active)
same,GI50,ACHN,3.78 µM (inactive)
same,GI50,SNB-78,0.288 µM (active)
same,GI50,HOP-18,3.78 µM (inactive)
same,GI50,M14,5.57 µM (inactive)
same,GI50,HOP-92,2.96 µM (inactive)
same,GI50,KM-20L2,2.58 µM (inactive)
same,GI50,Hs-578T,0.295 µM (active)
same,GI50,SW-620,0.176 µM (active)
same,GI50,OVCAR-5,8.32 µM (inactive)
same,GI50,PC-3,0.918 µM (active)
same,GI50,NCI-H460,4.81 µM (inactive)
same,GI50,HCT-15,5.87 µM
same,GI50,MOLT-4,2.31 µM (inactive)
same,GI50,MDA-N,7.11 µM (inactive)
same,GI50,MCF7,2.59 µM (inactive)
same,GI50,U-251,0.25 µM (active)
same,GI50,RPMI-8226,25 µM (inactive)
same,GI50,NCI-H23,0.843 µM (active)
same,GI50,HL-60,1.94 µM (inactive)
same,GI50,HOP-62,0.631 µM (active)
same,GI50,K562,2.21 µM (inactive)
same,GI50,UACC-62,3.98 µM (inactive)
same,GI50,NCI/ADR-RES,2.96 µM (inactive)
same,GI50,HCT-116,0.881 µM (active)
same,GI50,SK-MEL-2,2.25 µM (inactive)
same,GI50,OVCAR-3,2.07 µM (inactive)
same,GI50,LOX IMVI,4.67 µM (inactive)
same,GI50,SK-MEL-28,2.92 µM (inactive)
same,GI50,SF-268,0.29 µM (active)
same,GI50,MDA-MB-435,5.98 µM (inactive)
same,GI50,DU-145,2.3 µM (inactive)
same,GI50,CAKI-1,1.85 µM (inactive)
same,GI50,T47D,1.09 µM (active)
same,GI50,NCI-H522,0.617 µM (active)
same,GI50,UACC-257,8.38 µM (inactive)
same,GI50,A498,0.282 µM (active)
same,GI50,UO-31,1.51 µM (inactive)
same,GI50,SF-539,0.401 µM (active)
same,GI50,EKVX,0.536 µM (active)
same,GI50,786-0,0.232 µM (active)
same,GI50,TK-10,6.95 µM (inactive)
same,GI50,Malme-3M,1.74 µM (inactive)
same,GI50,M19-MEL,0.993 µM (active)
same,GI50,RXF 393,1.18 µM (inactive)
same,GI50,OVCAR-4,3.28 µM (inactive)
same,GI50,SNB-75,0.242 µM (active)
same,GI50,SNB-19,0.274 µM (active)
same,GI50,NCI-H226,0.272 µM (active)
same,GI50,HT-29,3.34 µM (inactive)
same,GI50,OVCAR-8,0.298 µM (active)
same,GI50,LXFL 529,0.286 µM (active)
same,GI50,A549,0.197 µM (active)
